Data from ChEMBL document CHEMBL1255225, “Antiviral activity of various 1-(2'-deoxy-β-D-lyxofuranosyl), 1-(2'-fluoro-β-D-xylofuranosyl), 1-(3'-fluoro-β-D-arabinofuranosyl), and 2'-fluoro-2',3'-didehydro-2',3'-dideoxyribose pyrimidine nucleoside analogues against duck hepatitis B virus (DHBV) and human hepatitis B virus (HBV) replication” (J Med Chem, 2010).
pEC50: −log10 of the molar value.

Assays:
Duck hepatitis B virus [1] = assay: Antiviral activity against DHBV infected in duck hepatocytes assessed as inhibition of viral DNA replication relative to control; type: functional, Hepatocyte; set-up: concentration or dose not given beside the values
[2] = Cytotoxicity against HuH7 cells; type: cell-based, Huh-7; details: human
Hepatitis B virus [3] = assay: Antiviral activity against HBV assessed as inhibition of viral DNA replication relative to control; type: functional; set-up: concentration or dose not given beside the values
Hepatitis B virus [4] = assay: Antiviral activity against HBV assessed as inhibition of viral DNA replication at 0.5 to 1 ug/mL; type: functional; set-up: scale not given: the % may be the effect or the level left
Hepatitis B virus [5] = assay: Antiviral activity against HBV assessed as inhibition of viral DNA replication; type: functional, organism-based
Hepatitis B virus [6] = assay: Antiviral activity against drug resistant HBV infected in M204I cells assessed as inhibition of viral DNA replication; type: functional, organism-based
Hepatitis B virus [7] = assay: Antiviral activity against drug resistant HBV infected in M204I cells assessed as inhibition of viral DNA replication at 10 ug/mL; type: functional; set-up: scale not given: the % may be the effect or the level left
Duck hepatitis B virus [8] = assay: Antiviral activity against DHBV infected in duck hepatocytes assessed as inhibition of viral DNA replication; type: functional, organism-based; details: Hepatocyte
Duck hepatitis B virus [9] = assay: Antiviral activity against DHBV infected in duck hepatocytes assessed as inhibition of viral DNA replication at 0.01 to 0.05 ug/mL; type: functional, Hepatocyte; set-up: scale not given: the % may be the effect or the level left
Hepatitis B virus [10] = assay: Antiviral activity against drug resistant HBV infected in M204I cells assessed as inhibition of viral DNA replication at 1 to 5 ug/mL; type: functional; set-up: scale not given: the % may be the effect or the level left
Duck hepatitis B virus [11] = assay: Antiviral activity against DHBV infected in duck hepatocytes assessed as inhibition of viral DNA replication at 10 ug/ml; type: functional, Hepatocyte; set-up: scale not given: the % may be the effect or the level left
Hepatitis B virus [12] = assay: Antiviral activity against HBV assessed as inhibition of viral DNA replication at 10 ug/mL; type: functional; set-up: scale not given: the % may be the effect or the level left
Hepatitis B virus [13] = assay: Antiviral activity against drug resistant HBV infected in M204I cells assessed as inhibition of viral DNA replication at 1 ug/mL; type: functional; set-up: scale not given: the % may be the effect or the level left
Hepatitis B virus [14] = assay: Antiviral activity against HBV assessed as inhibition of viral DNA replication at 1 ug/mL; type: functional; set-up: scale not given: the % may be the effect or the level left
Duck hepatitis B virus [15] = assay: Antiviral activity against DHBV infected in duck hepatocytes assessed as inhibition of viral DNA replication at 0.05 ug/ml; type: functional, Hepatocyte; set-up: scale not given: the % may be the effect or the level left
Duck hepatitis B virus [16] = assay: Antiviral activity against DHBV infected in duck hepatocytes assessed as inhibition of viral DNA replication at 1 ug/ml; type: functional, Hepatocyte; set-up: scale not given: the % may be the effect or the level left
Hepatitis B virus [17] = assay: Antiviral activity against HBV assessed as inhibition of viral DNA replication at 0.5 ug/mL; type: functional; set-up: scale not given: the % may be the effect or the level left
Hepatitis B virus [18] = assay: Antiviral activity against drug resistant HBV infected in M204I cells assessed as inhibition of viral DNA replication at 5 ug/mL; type: functional; set-up: scale not given: the % may be the effect or the level left
Hepatitis B virus [19] = assay: Antiviral activity against HBV assessed as inhibition of viral DNA replication at 5 ug/mL; type: functional; set-up: scale not given: the % may be the effect or the level left

O=c1[nH]c(=O)n([C@H]2CC(O)[C@@H](CO)O2)cc1F (single isomer, unassigned) [FLOXURIDINE] showed an Activity (Duck hepatitis B virus [1]) of 0%, a CC50 [2] of over 813 µM and an Activity (Hepatitis B virus [3]) of 0%.

With Nc1ccn([C@@H]2CS[C@H](CO)O2)c(=O)n1 [LAMIVUDINE] the Activity (Hepatitis B virus [4]) was 85%, the pEC50 (Hepatitis B virus [5]) was 6.66 and the pEC50 (Hepatitis B virus [6]) was under 4.36. It also gave a CC50 [2] of over 873 µM, an Activity (Hepatitis B virus [7]) of 40% and a pEC50 (Duck hepatitis B virus [8]) of over 7.36. The Activity (Duck hepatitis B virus [9]) was 95%.

With O=c1[nH]c(=O)n([C@H]2C[C@H](O)[C@@H](CO)O2)cc1I [IDOXURIDINE] the Activity (Duck hepatitis B virus [1]) was 0%, the CC50 [2] was over 282 µM and the Activity (Hepatitis B virus [3]) was 0%.

Nc1nc(NC2CC2)c2ncn([C@H]3C=C[C@@H](CO)C3)c2n1 [ABACAVIR] gave a pEC50 (Hepatitis B virus [6]) of over 5.59 and an Activity (Hepatitis B virus [10]) of 80%.

Compound Cc1cn([C@@H]2O[C@H](CO)C=C2F)c(=O)[nH]c1=O has an Activity (Duck hepatitis B virus [11]) of 94%, an Activity (Hepatitis B virus [12]) of 85% and a pEC50 (Hepatitis B virus [5]) of 5.70. The pEC50 (Hepatitis B virus [6]) was 5.39, the Activity (Hepatitis B virus [13]) was 50% and the CC50 [2] was over 413 µM. It also gave a pEC50 (Duck hepatitis B virus [8]) of 6.70, an Activity (Hepatitis B virus [14]) of 58% and an Activity (Duck hepatitis B virus [15]) of 50%. It also gave an Activity (Duck hepatitis B virus [16]) of 67% and an Activity (Hepatitis B virus [17]) of 50%.

O=c1ccn([C@@H]2O[C@H](CO)[C@H](O)[C@H]2F)c(=O)[nH]1 gave an Activity (Duck hepatitis B virus [11]) of 50%, an Activity (Hepatitis B virus [12]) of 40% and a CC50 [2] of over 813 µM. It also gave a pEC50 (Duck hepatitis B virus [8]) of 4.39.

In the case of O=c1[nH]c(=O)n([C@H]2CC(O)[C@@H](CO)O2)cc1C(F)(F)F (single isomer, unassigned) [TRIFLURIDINE], the Activity (Duck hepatitis B virus [11]) was 70%, the Activity (Hepatitis B virus [12]) was 55% and the pEC50 (Hepatitis B virus [5]) was 4.47. For the same compound, the pEC50 (Hepatitis B virus [6]) was 4.47, the CC50 [2] was over 675 µM and the Activity (Hepatitis B virus [7]) was 50%. The pEC50 (Duck hepatitis B virus [8]) was 5.47 and the Activity (Duck hepatitis B virus [16]) was 50%.

In the case of Cc1cn([C@@H]2O[C@H](CO)[C@H](O)[C@H]2F)c(=O)[nH]c1=O, the Activity (Duck hepatitis B virus [11]) was 72%, the Activity (Hepatitis B virus [12]) was 60% and the pEC50 (Hepatitis B virus [5]) was 4.72. It also gave a pEC50 (Hepatitis B virus [6]) of 4.72, a CC50 [2] of over 769 µM and an Activity (Hepatitis B virus [18]) of 50%. For the same compound, the pEC50 (Duck hepatitis B virus [8]) was 5.42, the Activity (Hepatitis B virus [19]) was 50% and the Activity (Duck hepatitis B virus [16]) was 50%.

Compound O=c1[nH]c(=O)n([C@H]2C[C@@H](O)[C@@H](CO)O2)cc1Cl has an Activity (Duck hepatitis B virus [11]) of 25%, an Activity (Hepatitis B virus [12]) of 15% and a CC50 [2] of over 763 µM.

With Cc1cn([C@H]2C[C@@H](O)[C@@H](CO)O2)c(=O)[nH]c1=O the Activity (Duck hepatitis B virus [11]) was 65%, the Activity (Hepatitis B virus [12]) was 50% and the pEC50 (Hepatitis B virus [5]) was 4.38. The CC50 [2] was over 826 µM, the Activity (Hepatitis B virus [7]) was 45% and the pEC50 (Duck hepatitis B virus [8]) was 5.38. The Activity (Duck hepatitis B virus [16]) was 50%.

With Cc1cn([C@@H]2O[C@H](CO)[C@@H](F)[C@@H]2O)c(=O)[nH]c1=O the Activity (Duck hepatitis B virus [1]) was 0%, the CC50 [2] was over 769 µM and the Activity (Hepatitis B virus [3]) was 0%.

For O=c1ccn([C@@H]2O[C@H](CO)[C@@H](F)[C@@H]2O)c(=O)[nH]1, the Activity (Duck hepatitis B virus [11]) was 25%, the Activity (Hepatitis B virus [12]) was 15% and the CC50 [2] was over 813 µM.

O=c1ccn([C@H]2C[C@@H](O)[C@@H](CO)O2)c(=O)[nH]1 showed an Activity (Duck hepatitis B virus [1]) of 0%, a CC50 [2] of over 877 µM and an Activity (Hepatitis B virus [3]) of 0%.

Compound Nc1ncnc2c1ncn2[C@H]1CC(O)[C@@H](CO)O1 (single isomer, unassigned) [DEOXYADENOSINE] has an Activity (Duck hepatitis B virus [11]) of 40% and an Activity (Hepatitis B virus [12]) of 36%.

Work on Cc1cn([C@H]2C[C@@H](O)[C@@H](CO)O2)c(=O)[nH]c1=S yielded an Activity (Duck hepatitis B virus [1]) of 0%, a CC50 [2] of over 775 µM and an Activity (Hepatitis B virus [3]) of 0%.

Compound CCc1cn([C@H]2C[C@@H](O)[C@@H](CO)O2)c(=O)[nH]c1=O has an Activity (Duck hepatitis B virus [1]) of 0%, a CC50 [2] of over 781 µM and an Activity (Hepatitis B virus [3]) of 0%.

In the case of CCc1cn([C@@H]2O[C@H](CO)C=C2F)c(=O)[nH]c1=O, the Activity (Duck hepatitis B virus [11]) was 50%, the Activity (Hepatitis B virus [12]) was 50% and the pEC50 (Hepatitis B virus [5]) was 4.41. It also gave a pEC50 (Hepatitis B virus [6]) of 4.41, a CC50 [2] of over 781 µM and an Activity (Hepatitis B virus [7]) of 50%. The pEC50 (Duck hepatitis B virus [8]) was 4.41.

O=c1[nH]c(=O)n([C@H]2C[C@@H](O)[C@@H](CO)O2)cc1Br showed an Activity (Duck hepatitis B virus [1]) of 0%, a CC50 [2] of over 651 µM and an Activity (Hepatitis B virus [3]) of 0%.
